# Test results taken from US20050009005A1, “Methods of using quantitative lipid metabolome data” (Lipomics Technologies, Inc., priority 2001, published 2005).
# Read-outs that look alike come from different tables or passages of the source.
# System: de novo fatty acid synthesis
# Details: Liver
smiles,measurement,setting,value
CN(CCOc1ccc(CC2SC(=O)NC2=O)cc1)c1ccccn1 (stereo not shown) [rosiglitazone],18:0,"CE, mean of treated mice",204.4 nanomoles per gram
same,18:1n7,"CE, mean of treated mice",138.6 nanomoles per gram
same,18:1n9,"CE, mean of treated mice",1208.0 nanomoles per gram
same,Saturates,"CE, mean of treated mice",3147.2 nanomoles per gram
same,Total n7,"CE, mean of treated mice",817.0 nanomoles per gram
same,Total n9,"CE, mean of treated mice",1239.5 nanomoles per gram
same,Total nMole of,"CE, mean of treated mice",5830.7 nanomoles per gram
same,14:0,"CL, mean",0.5 percentage of total fatty acids within each lipid class
same,16:0,"CL, mean",5.7 percentage of total fatty acids within each lipid class
same,16:1n7,"CL, mean",6.3 percentage of total fatty acids within each lipid class
same,18:0,"CL, mean",3.6 percentage of total fatty acids within each lipid class
same,18:1n7,"CL, mean",5.5 percentage of total fatty acids within each lipid class
same,18:1n9,"CL, mean",10.0 percentage of total fatty acids within each lipid class
same,Saturates,"CL, mean",10.6 percentage of total fatty acids within each lipid class
same,Total,"CL, mean",100.0 percentage of total fatty acids within each lipid class
same,Total n7,"CL, mean",11.8 percentage of total fatty acids within each lipid class
same,Total n9,"CL, mean",10.5 percentage of total fatty acids within each lipid class
same,14:0,"FFA, mean",1.0 percentage of total fatty acids within each lipid class
same,16:0,"FFA, mean",19.9 percentage of total fatty acids within each lipid class
same,16:1n7,"FFA, mean",9.4 percentage of total fatty acids within each lipid class
same,18:0,"FFA, mean",3.0 percentage of total fatty acids within each lipid class
same,18:1n7,"FFA, mean",6.4 percentage of total fatty acids within each lipid class
same,18:1n9,"FFA, mean",25.4 percentage of total fatty acids within each lipid class
same,Saturates,"FFA, mean",24.4 percentage of total fatty acids within each lipid class
same,Total,"FFA, mean",100.0 percentage of total fatty acids within each lipid class
same,Total n7,"FFA, mean",15.8 percentage of total fatty acids within each lipid class
same,Total n9,"FFA, mean",26.0 percentage of total fatty acids within each lipid class
same,14:0,"FFA, mean of treated mice",236.5 nanomoles per gram
same,16:0,"FFA, mean of treated mice",4507.0 nanomoles per gram
same,16:1n7,"FFA, mean of treated mice",2121.2 nanomoles per gram
same,18:0,"FFA, mean of treated mice",691.5 nanomoles per gram
same,18:1n7,"FFA, mean of treated mice",1466.0 nanomoles per gram
same,18:1n9,"FFA, mean of treated mice",5761.2 nanomoles per gram
same,Saturates,"FFA, mean of treated mice",5541.5 nanomoles per gram
same,Total n7,"FFA, mean of treated mice",3587.3 nanomoles per gram
same,Total n9,"FFA, mean of treated mice",5909.9 nanomoles per gram
same,Total nMole of,"FFA, mean of treated mice",22631.3 nanomoles per gram
same,14:0,"PC, mean",0.2 percentage of total fatty acids within each lipid class
same,16:0,"PC, mean",33.3 percentage of total fatty acids within each lipid class
same,16:1n7,"PC, mean",1.7 percentage of total fatty acids within each lipid class
same,18:0,"PC, mean",10.3 percentage of total fatty acids within each lipid class
same,18:1n7,"PC, mean",4.6 percentage of total fatty acids within each lipid class
same,18:1n9,"PC, mean",9.6 percentage of total fatty acids within each lipid class
same,Saturates,"PC, mean",44.1 percentage of total fatty acids within each lipid class
same,Total,"PC, mean",100.0 percentage of total fatty acids within each lipid class
same,Total n7,"PC, mean",6.4 percentage of total fatty acids within each lipid class
same,Total n9,"PC, mean",10.2 percentage of total fatty acids within each lipid class
same,14:0,"PC, mean of treated mice",43.2 nanomoles per gram
same,16:0,"PC, mean of treated mice",9572.4 nanomoles per gram
same,16:1n7,"PC, mean of treated mice",501.3 nanomoles per gram
same,18:0,"PC, mean of treated mice",2975.6 nanomoles per gram
same,18:1n7,"PC, mean of treated mice",1329.1 nanomoles per gram
same,18:1n9,"PC, mean of treated mice",2767.4 nanomoles per gram
same,Saturates,"PC, mean of treated mice",12686.5 nanomoles per gram
same,Total n7,"PC, mean of treated mice",1830.5 nanomoles per gram
same,Total n9,"PC, mean of treated mice",2932.3 nanomoles per gram
same,Total nMole of,"PC, mean of treated mice",14390.8 nanomoles per gram
same,14:0,"PS/I, mean",0.2 percentage of total fatty acids within each lipid class
same,16:0,"PS/I, mean",11.1 percentage of total fatty acids within each lipid class
same,16:1n7,"PS/I, mean",0.7 percentage of total fatty acids within each lipid class
same,18:0,"PS/I, mean",32.3 percentage of total fatty acids within each lipid class
same,18:1n7,"PS/I, mean",2.9 percentage of total fatty acids within each lipid class
same,18:1n9,"PS/I, mean",6.7 percentage of total fatty acids within each lipid class
same,Saturates,"PS/I, mean",44.2 percentage of total fatty acids within each lipid class
same,Total,"PS/I, mean",100.0 percentage of total fatty acids within each lipid class
same,Total n7,"PS/I, mean",3.6 percentage of total fatty acids within each lipid class
same,Total n9,"PS/I, mean",8.2 percentage of total fatty acids within each lipid class
same,14:0,"PS/I, mean of treated mice",18.9 nanomoles per gram
same,16:0,"PS/I, mean of treated mice",1158.5 nanomoles per gram
same,16:1n7,"PS/I, mean of treated mice",76.0 nanomoles per gram
same,18:0,"PS/I, mean of treated mice",3348.9 nanomoles per gram
same,18:1n7,"PS/I, mean of treated mice",303.2 nanomoles per gram
same,18:1n9,"PS/I, mean of treated mice",693.2 nanomoles per gram
same,Saturates,"PS/I, mean of treated mice",4590.1 nanomoles per gram
same,Total n7,"PS/I, mean of treated mice",379.2 nanomoles per gram
same,Total n9,"PS/I, mean of treated mice",854.3 nanomoles per gram
same,Total nMole of,"PS/I, mean of treated mice",5196.5 nanomoles per gram
same,14:0,"TAG, mean",0.5 percentage of total fatty acids within each lipid class
same,16:0,"TAG, mean",27.1 percentage of total fatty acids within each lipid class
same,16:1n7,"TAG, mean",8.1 percentage of total fatty acids within each lipid class
same,18:0,"TAG, mean",0.6 percentage of total fatty acids within each lipid class
same,18:1n7,"TAG, mean",5.8 percentage of total fatty acids within each lipid class
same,18:1n9,"TAG, mean",39.6 percentage of total fatty acids within each lipid class
same,Saturates,"TAG, mean",28.6 percentage of total fatty acids within each lipid class
same,Total,"TAG, mean",100.0 percentage of total fatty acids within each lipid class
same,Total n7,"TAG, mean",13.9 percentage of total fatty acids within each lipid class
same,Total n9,"TAG, mean",40.5 percentage of total fatty acids within each lipid class
same,14:0,"TAG, mean of treated mice",2450.8 nanomoles per gram
same,16:0,"TAG, mean of treated mice",122013.9 nanomoles per gram
same,16:1n7,"TAG, mean of treated mice",36411.0 nanomoles per gram
same,18:0,"TAG, mean of treated mice",2665.4 nanomoles per gram
same,18:1n7,"TAG, mean of treated mice",26279.6 nanomoles per gram
same,18:1n9,"TAG, mean of treated mice",179035.8 nanomoles per gram
same,Saturates,"TAG, mean of treated mice",129102.3 nanomoles per gram
same,Total n7,"TAG, mean of treated mice",62690.6 nanomoles per gram
same,Total n9,"TAG, mean of treated mice",183105.4 nanomoles per gram
same,Total nMole of,"TAG, mean of treated mice",150412.8 nanomoles per gram
